Assay [1] has as its target T1, human GIP receptor (HEK-GIPR) (Homo sapiens, UniProt P48546).
T1 construct: expressed in transfected cells
T1 sequence (P48546 22-466): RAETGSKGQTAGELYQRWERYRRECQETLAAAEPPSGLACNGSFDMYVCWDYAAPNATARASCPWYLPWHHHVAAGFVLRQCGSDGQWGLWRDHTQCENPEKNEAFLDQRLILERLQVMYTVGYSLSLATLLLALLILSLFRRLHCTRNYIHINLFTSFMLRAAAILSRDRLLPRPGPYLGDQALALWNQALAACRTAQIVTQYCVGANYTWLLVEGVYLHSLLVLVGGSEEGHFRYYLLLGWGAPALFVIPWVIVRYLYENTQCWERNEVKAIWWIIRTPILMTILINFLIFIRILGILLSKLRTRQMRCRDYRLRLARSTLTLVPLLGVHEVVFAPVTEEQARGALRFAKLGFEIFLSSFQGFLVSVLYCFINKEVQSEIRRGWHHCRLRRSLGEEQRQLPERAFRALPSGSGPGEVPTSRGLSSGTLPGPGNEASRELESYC
Nature of the assay: GIP receptor binding (RBA) displacement assay. Particulars: for inhibition at 0.01 µM: read-out: GIP RBA % inhibition at 10 nM. The procedure:
Membrane fractions were prepared from confluent cell cultures of HEK-GIPR, snap frozen, and stored at −80° C. until use. […] Reactions were allowed to proceed to equilibrium for 90 minutes at room temperature with constant shaking. The reaction mixtures were then filtered through 96-well glass fiber filter plates separating bound and unbound fractions of radioligand.

A further assay concerns NIH/Swiss mice. Nature of the assay: Oral glucose tolerance test (OGTT), glucose lowering. Particulars: 30 nM/kg, blood glucose. The class given is in vivo. The procedure:
. Test compounds were injected IP (t=0 min) immediately following baseline measurements of 2 hour fasted NIH/Swiss mice. Blood samples were taken at 60, 120, and 180 minutes after injection. In some assays, samples were also taken at 240 minutes after the injection. Blood glucose was measured with a One-Touch® Ultra® glucose meter (LifeScan, Inc., Milpitas, Calif.). […].
The tests were performed as described in Example 5.

Broadly, the inhibition is the drop in the measured response relative to a control, in per cent. Regarding `CC[C@H](C)[C@H](NC(=O)[C@H](CO)NC(=O)[C@H](Cc1ccc(O)cc1)NC(=O)[C@H](CC(=O)O)NC(=O)[C@H](CO)NC(=O)[C@@H](NC(=O)[C@H](Cc1ccccc1)NC(=O)[C@@H](NC(=O)CNC(=O)[C@H](CCC(=O)O)NC(=O)[C@H](C)NC(=O)[C@H](Cc1ccc(O)cc1)NC(=O)COCCOCCNC(=O)COCCOCCNC(=O)CC[C@H](N)C(=O)N1CCC[C@H]1C#N)[C@@H](C)O)[C@@H](C)CC)C(=O)N[C@@H](C)C(=O)N[C@@H](CCSC)C(=O)N[C@@H](CC(=O)O)C(=O)N[C@@H](CCCCN)C(=O)N[C@H](C(=O)N[C@@H](Cc1c[nH]cn1)C(=O)N[C@@H](CCC(N)=O)C(=O)N[C@@H](CCC(N)=O)C(=O)N[C@@H](CC(=O)O)C(=O)N[C@@H](Cc1ccccc1)C(=O)N[C@H](C(=O)N[C@@H](CC(N)=O)C(=O)N[C@@H](Cc1c[nH]c2ccccc12)C(=O)N[C@@H](CC(C)C)C(=O)N[C@@H](CC(C)C)C(=O)N[C@@H](C)C(=O)N[C@@H](CCC(N)=O)C(=O)NC(CCCCN)C(N)=O)C(C)C)[C@@H](C)CC` (stereo partly drawn) [N-(γ-L-Glu-2-(S)-cyanopyrrolidyl)-Ado-Ado) GIP(1-30)], in assay [1], the inhibition at 0.01 µM is 32%.

For the compound `CC[C@H](C)[C@H](NC(=O)[C@H](CO)NC(=O)[C@H](Cc1ccc(O)cc1)NC(=O)[C@H](CC(=O)O)NC(=O)[C@H](CO)NC(=O)[C@@H](NC(=O)[C@H](Cc1ccccc1)NC(=O)[C@@H](NC(=O)CNC(=O)[C@H](CCC(=O)O)NC(=O)[C@@H](C)NC(=O)[C@@H](N)Cc1ccc(O)cc1)[C@@H](C)O)[C@@H](C)CC)C(=O)N[C@@H](C)C(=O)N[C@@H](CC(C)C)C(=O)N[C@@H](CC(=O)O)C(=O)N[C@@H](CCCCN)C(=O)N[C@H](C(=O)N[C@@H](Cc1c[nH]cn1)C(=O)N[C@@H](CCC(N)=O)C(=O)N[C@@H](CCC(N)=O)C(=O)N[C@@H](CC(=O)O)C(=O)N[C@@H](Cc1ccccc1)C(=O)N[C@H](C(=O)N[C@@H](CC(N)=O)C(=O)N[C@@H](Cc1c[nH]c2ccccc12)C(=O)N[C@@H](CC(C)C)C(=O)N[C@@H](CC(C)C)C(=O)N[C@@H](C)C(=O)N[C@@H](CCC(N)=O)C(=O)N[C@@H](CCCCN)C(=O)NCCC(=O)NCCC(=O)NCCCC[C@H](NC(=O)[C@@H]1CCC(=O)N1)C(=O)N[C@@H](Cc1c[nH]c2ccccc12)C(=O)N[C@@H](C)C(=O)N1CCC[C@H]1C(=O)O)C(C)C)[C@@H](C)CC` [[^2D-Ala,^14Leu] GIP-(1-30)-β-Ala-β-Ala-Lys(α-NH-Pyroglutamoyl)-Trp-Ala-Pro-COOH], the inhibition at 0.01 µM in assay [1] was 66%.

As to `CC[C@H](C)[C@H](NC(=O)[C@H](CO)NC(=O)[C@H](Cc1ccc(O)cc1)NC(=O)[C@H](CC(=O)O)NC(=O)[C@H](CO)NC(=O)[C@@H](NC(=O)[C@H](Cc1ccccc1)NC(=O)[C@@H](NC(=O)CNC(=O)[C@H](CCC(=O)O)NC(=O)[C@@H](C)NC(=O)[C@@H](N)Cc1ccc(O)cc1)[C@@H](C)O)[C@@H](C)CC)C(=O)N[C@@H](C)C(=O)N[C@@H](CCSC)C(=O)N[C@@H](CC(=O)O)C(=O)N[C@@H](CCCCN)C(=O)N[C@H](C(=O)N[C@@H](Cc1c[nH]cn1)C(=O)N[C@@H](CCC(N)=O)C(=O)N[C@@H](CCC(N)=O)C(=O)N[C@@H](CC(=O)O)C(=O)N[C@@H](Cc1ccccc1)C(=O)N[C@H](C(=O)N[C@@H](CC(N)=O)C(=O)N[C@@H](Cc1c[nH]c2ccccc12)C(=O)N[C@@H](CC(C)C)C(=O)N[C@@H](CC(C)C)C(=O)N[C@@H](C)C(=O)N[C@@H](CCC(N)=O)C(=O)N[C@@H](CCCCN)C(=O)NCCOCCOCC(=O)NCCOCCOCC(=O)NCCCCCCCCCCC(=O)NCCC(=O)NCCC(=O)NCCCC[C@H](NC(=O)[C@@H]1CCC(=O)N1)C(=O)N[C@@H](Cc1c[nH]c2ccccc12)C(=O)N[C@@H](C)C(=O)N1CCC[C@H]1C(=O)O)C(C)C)[C@@H](C)CC` [[^2D-Ala]GIP-(1-30)-Ado-Ado-Aun-βAla-βAla-ε-NH-Lys(α-NH-Pyroglutamoyl)-Trp-Ala-Pro], the inhibition at 0.01 µM in assay [1] came out at 70%.

Take `CC[C@H](C)[C@H](NC(=O)[C@H](CO)NC(=O)[C@H](Cc1ccc(O)cc1)NC(=O)[C@H](CC(=O)O)NC(=O)[C@H](CO)NC(=O)[C@@H](NC(=O)[C@H](Cc1ccccc1)NC(=O)[C@@H](NC(=O)CNC(=O)[C@H](CCC(=O)O)NC(=O)[C@@H](C)NC(=O)[C@@H](N)Cc1ccc(O)cc1)[C@@H](C)O)[C@@H](C)CC)C(=O)N[C@@H](C)C(=O)N[C@@H](CC(C)C)C(=O)N[C@@H](CC(=O)O)C(=O)N[C@@H](CCCCN)C(=O)N[C@H](C(=O)N[C@@H](Cc1c[nH]cn1)C(=O)N[C@@H](CCC(N)=O)C(=O)N[C@@H](CCC(N)=O)C(=O)N[C@@H](CC(=O)O)C(=O)N[C@@H](Cc1ccccc1)C(=O)N[C@H](C(=O)N[C@@H](CC(N)=O)C(=O)N[C@@H](Cc1c[nH]c2ccccc12)C(=O)N[C@@H](CC(C)C)C(=O)N[C@@H](CC(C)C)C(=O)N[C@@H](C)C(=O)N[C@@H](CCC(N)=O)C(=O)N[C@@H](CCCCN)C(=O)N1CCC[C@H]1C(=O)N[C@@H](CO)C(=O)N[C@@H](CO)C(=O)NCC(=O)N[C@@H](C)C(=O)N1CCC[C@H]1C(=O)N1CCC[C@H]1C(=O)N1CCC[C@H]1C(=O)N[C@@H](CO)C(=O)NCCOCCOCC(=O)NCCOCCOCC(=O)NCCCCCCCCCCC(=O)NCCC(=O)NCCC(=O)NCCCC[C@H](NC(=O)[C@@H]1CCC(=O)N1)C(=O)N[C@@H](Cc1c[nH]c2ccccc12)C(=O)N[C@@H](C)C(=O)N1CCC[C@H]1C(=O)O)C(C)C)[C@@H](C)CC` [[^2D-Ala^14Leu] GIP(1-30)-exendin-4(31-39)-Ado-Ado-Aun-βAla-βAla-ε-NH-Lys(α-NH-Pyroglutamoyl)-Trp-Ala-Pro]: the inhibition at 0.01 µM in assay [1] came out at 86%.

Consider “[^14Leu] GIP(1-30)-exendin-4(31-39)-Ado-Lys-N-ε-(2-(S)-cyano pyrrolidyl)”, for which, in assay [1] (10 nM conjugate, 30 pM 125I-GIP, relative to human GIP (100%)), the “GIP RBA % inhibition at 10 nM” value was 99%. Besides, in the assay on NIH/Swiss mice, the “OGTT (30 nM/kg) % maximal decrease” value is given as −24%.

For the origin of these results see US8598314B2 (priority 2007, dated 2013).
